As a reminder, the IC50 is the midpoint of a concentration-inhibition curve.

For one experiment, the system named is lung cancer cells (A549). Briefly: Cytotoxicity by MTT analysis, A549. The experiment is classed as cell-based. As for the experimental part: (§1) Toxicity to cells was analyzed using 3-[4,5-dimethylthiazol-2-yl]-2,5-diphenyl-tetra zolium bromide (MTT) analysis. As cancer cells to be measured, 8.0×10^3 cells/mL was aliquoted on a 96-well culture dish and then the cells were cultured for 24 hours. The next day, the synthesized compound was dissolved in a medium according to each concentration, and diluted in a medium according to each concentration. The medium in which the compound was dissolved according to each concentration was added to a culture dish at […], dimethyl sulfoxide (DMSO) was added to a control well so as to have the same volume as the added compound. After the addition, the cells were cultured in an incubator in 5% CO2 at 37° C., and then survival capability of cells was measured at 24 hours and 48 hours after the culture. After the medium was removed, the cells were washed twice using PBS, then 200 μL of a solution containing 1 mg/mL of MTT (Sigma-Aldrich Chemical Co., USA) was added thereto, and then the cells were further cultured for 3 hours in a CO2 incubator at 37° C. The 96-well culture dish was centrifuged for 10 minutes at 2000 rpm to remove the MTT solution. […] The solution was added to the 96-well culture dish, and then absorbance was measured at 540 nm. Relative absorbance was calculated using absorbance according to concentration of drugs divided by absorbance of a control group (drug-untreated group).

The test system of experiment [1] is ovarian cancer cells (SK-OV-3). Briefly: Cytotoxicity by MTT analysis, SK-OV-3. The experiment is classed as cell-based. The conditions noted are these: Homo sapiens, SK-OV-3, MTT analysis, read-out: IC50 (nM) SK-OV3 Ovarian cancer. As for the experimental part: as §1
Experiment [2] deals with skin cancer cells (SK-MEL2). Briefly: Cytotoxicity by MTT analysis, SK-MEL2. The experiment is classed as cell-based. As for the experimental part: as §1
The test system of experiment [3] is colorectal cancer cells (HCT15). Briefly: Cytotoxicity by MTT analysis, HCT15. The experiment is classed as cell-based. As for the experimental part:
as §1

The test system of experiment [4] is prostate cancer cell line, PC3. Briefly: Cytotoxicity by MTT analysis, PC3. The conditions noted are these: PC3 prostate cancer cells. The experiment is classed as cell-based. As for the experimental part: The prostate cancer cell line, PC3 was obtained from Korean Cell Line Bank. After adding Rosewell Park Memorial Institute (RPMI) 1640 cell culture medium (LM001-01, WelGEN) containing 10% fetal bovine serum (FBS), 100 units/mL of penicillin and 100 μg/mL of streptomycin to a 100 Φ dish, cells were inoculated on the dish and cultured in a CO2 incubator (VS-9000C, vision) in 5% CO2/95% humidified air atmosphere at 37° C.
Toxicity to cells was analyzed using 3-[4,5-dimethylthiazol-2-yl]-2,5-diphenyl-tetra zolium bromide (MTT) analysis. As cancer cells to be measured, 8.0×10^3 cells/mL was aliquoted on a 96-well culture dish and then the cells were cultured for 24 hours. The next day, the synthesized compound was dissolved in a medium according to each concentration, and diluted in a medium according to each concentration. […] After the addition, the cells were cultured in an incubator in 5% CO2 at 37° C., and then survival capability of cells was measured at 24 hours and 48 hours after the culture. […] The solution was added to the 96-well culture dish, and then absorbance was measured at 540 nm. Relative absorbance was calculated using absorbance according to concentration of drugs divided by absorbance of a control group (drug-untreated group).

Experiment [5] relates to breast cancer cells (MCF7). Briefly: Cytotoxicity by MTT analysis, MCF7. The experiment is classed as cell-based. The conditions noted are these: Homo sapiens. As for the experimental part:
as §1

Experiment [6] has as its system prostate cancer cell line, PC3, transplanted. Briefly: Anti-cancer effect in vivo in mice with transplanted PC3 tumors. The conditions noted are these: 2 mg/kg/day i.v. for four consecutive days, compared 7 days after stoppage. As for the experimental part: The anti-cancer activity of the compound according to the present invention, HF-154 was measured in in-vivo using mice in which a prostate cancer cell line, PC3, was transplanted. An experimental group included a group of two mice to which an excipient (vehicle) was administered and a group of four mice to which the compound according to the present invention, HF-154, was administered. The compound according to the present invention, HF-154, was administered to each mouse in an amount of 2 mg/kg/day (100 μL i.v.). First, after administration for four consecutive days, administration was stopped, and tumor growth was compared at 7 days after the stoppage.

The structures appear in SMILES notation.

Turning to `O=C(CCc1ccco1)Nc1ncc(-c2ccc(F)cc2)s1` [HF-154, N-(5-(4-fluorophenyl)thiazol-2-yl)-3-(furan-2-yl)propanamide], the IC50 is approximately 3 nM in the experiment on lung cancer cells (A549); approximately 0.5 nM in experiment [1]; approximately 5 nM in experiment [2]; 1 to 5 nM in experiment [3] (Homo sapiens, HCT-15, MTT analysis); approximately 1 nM in experiment [3] (MTT analysis); approximately 0.1 nM in experiment [4]. Further, in experiment [5], the IC50 is approximately 0.3 nM. For the same compound, in experiment [6], the “size of the tumor compared to the excipient administration group” value is “significantly reduced”.

(Values after US9457015B2, “2-aminothiazole derivative and anti-cancer composition comprising same as active ingredient” (Chung-Ang University Industry-Academic Cooperation …, priority 2012, dated 2016).)
